From patent US8575100B2, “Tc and Re labeled radioactive glycosylated octreotide derivatives” (Mallinckrodt LLC, priority 2001, dated 2013)

What was measured:
[1] = Determination of lipophilicity (octanol/PBS); type: physicochemical; details: octanol/PBS pH 7.4; radiolabeled peptide; n=6
Protocol: To a solution of app. 300000 cpm of radiolabeled peptide in […] of PBS (pH 7.4), […] of octanol were added (n=6). Vials were vortexed for 3 min and then centrifuged at 15000 rpm for 6 min. Aliquots of […] of PBS and octanol were measured in a γ-Counter.

AR42J-cells (SSTR2) [2] = test: Externalization and recycling of radioligands in AR42J cells; type: cell-based, rat; details: for externalisation from the cell (in words): upon incubation up to 120 min; for extracellularly located radioactivity compared to the experiment without recycling: externalization experiment that allowed recycling
Protocol: (§1) The cells were incubated with the radioligand for up to 120 min (n=3). At each time point the activity in the supernatant, the surface-bound and the internalized activity were determined and normalized to the values of TOC. Externalization and recycling was studied after an incubation time of 120 min over 2 h. Specificity of ligand binding was studied in a competition experiment with […] Sandostatin.
(§2) Internalisation and externalisation experiments were performed using the sst2 expressing rat pancreatic tumor cell line AR42J. Free, surface bound and internalised radioactivity were determined after 10, 30, 60, 90 and 120 min. of incubation with the radioligands at 37° C. In the externalisation experiments allowing ligand recycling, the fraction of radioactivity released into the supernatant during 10, 30, 60, 90 and 120 min as well as the radioactivity remaining in the cells were determined. We also measured the activity released during 5 subsequent incubations (10, 20 and 3×30 min) with intermediate changes of the medium (limited recycling).
As described for the internalization studies, the six-well plates were incubated at 37° C. with fresh culture medium (RPMI 1640, 1% BSA, 2 mM L-Glutamine) for 1H prior to the experiment. Then app. […] After incubating for 120 min. at 37° C., the supernatant was collected and the cells were washed once with 1 ml of cold medium. The supernatant was pooled with the supernatant of the previous step. To collect externalized radioactivity the cells were then incubated at 37° C. with 1 ml of culture medium. After 10, 30, 60, 90 and 120 minutes respectively, the supernatant was collected, the cells were washed once with 1 ml of culture medium and the supernatant was again pooled with the supernatant of the previous step. Then the cells were extracted with 1 ml of 1 N NaOH and the wells were rinsed once with PBS. This pooled fraction represents radioligand still located in the cell. The activity in the NaOH-fraction as well as in the supernatant- and in the externalisation-fractions was counted in a γ-Counter.
As described for the previous experiment, a six-well plate was incubated for 120 min. at 37° C. with radioligand. The supernatant was collected and the cells were washed once with 1 ml of cold medium. The supernatant was pooled with the supernatant of the previous step. To collect externalized radioactivity the cells were then incubated at 37° C. with 1 ml of culture medium. After 10 min. the supernatant was collected and the cells were again incubated with 1 ml of culture medium for another 20 min. at 37° C. The supernatant was collected and the cells were three more times incubated with 1 ml of culture medium for 30 min. at 37° C. Then the cells were extracted with 1 ml of 1 N NaOH and the wells were rinsed once with PBS. This pooled fraction represents radioligand still located in the cell. The activity in the NaOH-fraction as well as in the externalisation-fractions at all time points was counted in a […].

AR42J-cells (SSTR2) [3] = test: Internalization of radioligands in AR42J cells; details: for internalised ligand / internalisation rate (% internalised ligand/% surface-bound ligand): 60 min incubation; for internalised ligand: normalized to the reference [125I]TOC; for internalisation rate (% internalised ligand/% surface-bound ligand): ratio normalized to the reference [125I]TOC
Protocol: as §1, §2
Coupling of glucose (Gluc) and maltotriose (Mtr) to N^α-Lys of N^ε-(Boc-His(Boc))Lys^0-Tyr^3-Lys^5(Dde)-octreotide (protected K(H)TOC) and final deprotection yielded Gluc- and Mtr-K(H)TOC. ^99mTc-labeling was carried out using [^99mTc(H2O)3(CO)3]^+. […] Biodistribution was evaluated in nude mice bearing AR42J tumors at 0.5 and 2 h p.i (n=4).
N^ε(Boc-His(Boc))Lys^0-Tyr^3-Lys^5 (Dde)-octreotide (protected K(H)TOC) was synthesized using standard Fmoc-chemistry. […] Tc-99m-labeling was carried out using the organometallic aquaion [^99mTc (H2O)3 (CO)3]^+(1). Internalization and externalization studies (<120 min) were performed for both compounds using the SSTR2 expressing cell line AR42J. […] Biodistribution of intravenously administered [^99mTc]Gluc-K(H)TOC and [^99mTc]Mtr-K(H)TOC was evaluated in nude mice bearing AR42J rat pancreatic tumors at 30 and 120 min p.i(n=4).
Six-well plates with a cell population of 8×10^5-5×10^6 AR42J-cells per well were incubated at 37° C. with fresh culture medium (RPMI 1640, 1% BSA, 2 mM L-glutamine) for 1 h prior to the experiment. Then app. […] After incubating for 10, 30, 60, 90 or 120 min. at 37° C. the supernatant was collected and the cells were washed once with 1 ml of cold medium. The supernatant was pooled with the supernatant of the previous step. To remove receptor bound (acid releasable) radioactivity the cells were incubated at 37° C. with 1 ml of 0.02 M NaOAc (acid wash). After 10 min. the supernatant was collected, the cells were washed once with 1 ml of 0.02 M NaOAc and the supernatant was again pooled with the supernatant of the previous step. Then the cells were extracted with 1 ml of 1 N NaOH and the wells were rinsed once with PBS. This pooled fraction represents internalized radioligand. The activity in the NaOH-fraction as well as in the supernatant- and in the acid wash-fractions was counted in a γ-Counter.

(1-deoxy-D-fructosyl)-Lys^0Nε-His)-Tyr^3-octreotide [S1-Lys^0(His)TOC]
log Pow [1]: log Pow = −0.673 ± 0.064

Na-(1-deoxy-D-fructosyl)-Lys^0(Nε-His [^99mTc (H2O)(CO)3]+)-Tyr^3-octreotide [[^99mTc]Gluc-K^0(H)TOC]
externalisation from the cell (in words) (AR42J-cells (SSTR2) [2]): remains trapped within the cell up to 120 min | externalisation from the cell (in words) (AR42J-cells (SSTR2) [2]; listed as [^99mTc]Gluc-K(H)TOC): almost stable up to 2h | retention in the cell under recycling conditions (AR42J-cells (SSTR2) [2]; within 120 min, recycling allowed): nearly quantitative retention | internalised ligand (AR42J-cells (SSTR2) [3]): 234 ± 24 | internalisation rate (% internalised ligand/% surface-bound ligand) (AR42J-cells (SSTR2) [3]): 171 ± 29 | increase of internalisation by a factor compared to the reference [125I]TOC (AR42J-cells (SSTR2) [3]; Example 2, time not given): 2.3±0.8 | intracellular activity levels, times higher than [125I]TOC (AR42J-cells (SSTR2) [3]; at 2 h (120 min)): 2.3±0.2 times

[^125I]Tyr^3-octreotate [[^125I]TOCA]
extracellularly located radioactivity compared to the experiment without recycling (AR42J-cells (SSTR2) [2]; printed as a fraction): about ⅔ | surface availability (% surface-bound ligand/% free radioligand) (AR42J-cells (SSTR2) [3]): 182 ± 6 | internalised ligand (AR42J-cells (SSTR2) [3]): 204 ± 7 | internalisation rate (% internalised ligand/% surface-bound ligand) (AR42J-cells (SSTR2) [3]): 140 ± 8 | amount of internalized ligand [% internalized TOC] (AR42J-cells (SSTR2) [3]; after 2 h of incubation, normalized to TOC): 154% | internalization rate (internalized/surface bound act.) increase (AR42J-cells (SSTR2) [3]; compared to TOC): 1.4 fold | surface concentration (availability on the cell surface) increased by a factor compared to TOC (AR42J-cells (SSTR2) [3]; compared to TOC): 2.1

[^125I]Tyr^3-octreotide [[^125I]TOC]
extracellularly located radioactivity compared to the experiment without recycling (AR42J-cells (SSTR2) [2]): about 80% | externalisation from the cell (in words) (AR42J-cells (SSTR2) [2]): rapidly externalised | decrease of intracellular activity (AR42J-cells (SSTR2) [2]; within 2 h (120 min)): about 50% | internalised ligand (AR42J-cells (SSTR2) [3]): 100 | internalisation rate (% internalised ligand/% surface-bound ligand) (AR42J-cells (SSTR2) [3]): 100
